Key:
[1] = system: SEAP-APP(Sw)695 fusion protein; assay: SEAP bioassay (cell-based, luminescence readout); settings: transiently transfected HEK293 cells; for IC50: Homo sapiens, concentration that reduces secreted SEAP activity to 50 %
Excerpt: (§1) The tests performed were a) Aβ1-40 (Sw) bioassay, which measures the amount of the amyoid peptide Aβ1-40 in the supernatant of Swedish APP695 transgenic HEK293 cells in the presence of the various BACE inhibitors via ELISA (enzyme-linked immunosorbent assay). […] A SEAP-APP(Sw)695 fusion protein is transiently expressed in HEK293 cells in the presence of the various BACE inhibitors. Secretion of the SEAP moiety upon cleavage at the APP β-site is quantitated via a luminescence readout. […] The compounds were docked with the FFLD approach (Budin et al., Biol. Chem. 382, 1365-1372, 2001) and their binding energy was evaluated with the LIECE method (Huang and Caflisch, J. Med. Chem. 47, 5791-5797, 2004). The affinity evaluated with LIECE is in the low micromolar range for most of these compounds.

Aβ1-40 secretion = assay: Aβ1-40 (Sw) bioassay (cell-based, ELISA); settings: for IC50: Homo sapiens, concentration that reduces Aβ1-40 secretion to 50 %, supernatant of Swedish APP695 transgenic HEK293 cells
Excerpt: as §1

recombinant BACE enzyme = recombinant BACE enzyme (Homo sapiens, UniProt P56817); assay: FRET assay (in vitro); type: biochemical; settings: for IC50: concentration that reduces the activity of BACE to 50 %
Chain of recombinant BACE enzyme (P56817 46-501): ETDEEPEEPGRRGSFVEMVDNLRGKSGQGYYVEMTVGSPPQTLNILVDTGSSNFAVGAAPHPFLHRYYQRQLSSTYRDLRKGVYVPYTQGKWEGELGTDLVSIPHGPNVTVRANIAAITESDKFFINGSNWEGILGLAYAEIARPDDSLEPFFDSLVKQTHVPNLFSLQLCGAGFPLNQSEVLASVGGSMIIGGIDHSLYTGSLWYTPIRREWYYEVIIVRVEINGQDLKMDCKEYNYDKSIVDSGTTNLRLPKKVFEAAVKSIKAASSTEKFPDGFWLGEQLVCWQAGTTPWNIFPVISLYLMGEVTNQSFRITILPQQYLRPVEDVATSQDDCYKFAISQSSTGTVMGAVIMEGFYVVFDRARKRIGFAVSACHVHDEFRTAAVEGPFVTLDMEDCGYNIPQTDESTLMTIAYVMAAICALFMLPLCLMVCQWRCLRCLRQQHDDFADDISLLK

CCCNC(=O)c1cc(NC(=O)Nc2cccc(OC)c2)ccc1N(C)C [Compound A5]
% reduction of secreted SEAP activity ([1]; at 6 µM): 0 (6 µM) % | IC50 (Aβ1-40 secretion): 14.3 µM | % reduction of the activity of BACE (recombinant BACE enzyme; at 100 µM): 16 (100 µM) %

CN(C)c1ccc(NC(=O)Nc2cc(C(F)(F)F)cc(C(F)(F)F)c2)cc1C(=O)NCCCN1CCOCC1 [Compound A1]
IC50 [1]: 3.5 µM | IC50 (Aβ1-40 secretion): 3 µM

CN(C)c1nc(OCCNC(=O)Nc2ccccc2)nc(N2CCCCC2)n1 [Compound C4]
% reduction of secreted SEAP activity ([1]; at 12.5 µM): 0 (12.5 µM) % | % reduction of Aβ1-40 secretion (Aβ1-40 secretion; at 12.5 µM, Swedish APP695 transgenic HEK293 cells): 31 (12.5 µM) % | % reduction of the activity of BACE (recombinant BACE enzyme; at 500 µM): 0 (500 µM) %

CCOCCCNC(=O)c1cc(NC(=O)Nc2ccccc2Br)ccc1N(C)C [Compound A14]
% reduction of secreted SEAP activity ([1]; at 6 µM): 0 (6 µM) % | IC50 (Aβ1-40 secretion): 7.8 µM | % reduction of the activity of BACE (recombinant BACE enzyme; at 100 µM): 0 (100 µM) %

CN(C)c1ccc(NC(=O)Nc2cc(C(F)(F)F)cc(C(F)(F)F)c2)cc1C(=O)NCc1ccc(F)cc1 [Compound A12]
% reduction of secreted SEAP activity ([1]; at 1.6 µM): 14 (1.6 µM) % | IC50 (Aβ1-40 secretion): 4.2 µM | IC50 (recombinant BACE enzyme): 131 µM

COCCCNC(=O)c1cc(NC(=O)Nc2cccc(OC)c2)ccc1N(C)C [Compound A4]
% reduction of secreted SEAP activity ([1]; at 6 µM): 21 (6 µM) % | IC50 (Aβ1-40 secretion): 7.5 µM | % reduction of the activity of BACE (recombinant BACE enzyme; at 100 µM): 33 (100 µM) %

COCCCNC(=O)c1cc(NC(=O)Nc2cccc(Br)c2)ccc1N(C)C [Compound A13]
% reduction of secreted SEAP activity ([1]; at 3 µM): 25 (3 µM) % | IC50 (Aβ1-40 secretion): 3.8 µM | % reduction of the activity of BACE (recombinant BACE enzyme; at 100 µM): 37 (100 µM) %

COc1cc(NC(=O)Nc2ccc(N(C)C)c(C(=O)NCc3ccc(F)cc3)c2)cc(OC)c1 [Compound A10]
% reduction of secreted SEAP activity ([1]; at 1.6 µM): 10 (1.6 µM) % | IC50 (Aβ1-40 secretion): 3.1 µM | IC50 (recombinant BACE enzyme): 64 µM

COCCNC(=O)c1cc(NC(=O)Nc2cccc(C)c2)ccc1N(C)C [Compound A7]
% reduction of secreted SEAP activity ([1]; at 12.5 µM): 0 (12.5 µM) % | IC50 (Aβ1-40 secretion): 12.9 µM | % reduction of the activity of BACE (recombinant BACE enzyme; at 100 µM): 0 (100 µM) %

Cc1cccc(NC(=O)Nc2ccc(N(C)C)c(C(=O)NCCc3ccccc3)c2)c1 [Compound A8]
% reduction of secreted SEAP activity ([1]; at 3 µM): 14 (3 µM) % | IC50 (Aβ1-40 secretion): 5.6 µM | % reduction of the activity of BACE (recombinant BACE enzyme; at 100 µM): 35 (100 µM) %

COc1cccc(NC(=O)Nc2nnc(C(C)Oc3ccccc3)s2)c1 (stereo not drawn) [Compound B4]
% reduction of secreted SEAP activity ([1]; at 12.5 µM): 0 (12.5 µM) % | IC50 (Aβ1-40 secretion): 13 µM | % reduction of the activity of BACE (recombinant BACE enzyme; at 500 µM): 0 (500 µM) %

CCSc1nsc(NC(=O)Nc2cccc(C(C)=O)c2)n1 [Compound B3]
IC50 [1]: 10 µM | IC50 (Aβ1-40 secretion): 1.6 µM

CSc1nnc(CCNC(=O)Nc2ccc(Cl)c(C(F)(F)F)c2)n1C(C)C [Compound B2]
% reduction of secreted SEAP activity ([1]; at 12.5 µM): 0 (12.5 µM) % | IC50 (Aβ1-40 secretion): 40 µM | % reduction of the activity of BACE (recombinant BACE enzyme; at 250 µM): 0 (250 µM) %

CCNc1nc(NC(C)(C)C)nc(OCCNC(=O)Nc2ccccc2)n1 [Compound C5]
% reduction of secreted SEAP activity ([1]; at 25 µM): 0 (25 µM) % | IC50 (Aβ1-40 secretion): 10 to 20 µM | % reduction of the activity of BACE (recombinant BACE enzyme; at 500 µM): 0 (500 µM) %

COCCCNC(=O)c1cc(NC(=O)Nc2ccc(Cl)c(Cl)c2)ccc1N(C)C [Compound A9]
% reduction of secreted SEAP activity ([1]; at 3 µM): 17 (3 µM) % | IC50 (Aβ1-40 secretion): 5.9 µM | IC50 (recombinant BACE enzyme): 46 µM

CCCNC(=O)c1cc(NC(=O)Nc2ccc(CC)cc2)ccc1N(C)C [Compound A11]
% reduction of secreted SEAP activity ([1]; at 6 µM): 0 (6 µM) % | IC50 (Aβ1-40 secretion): 5.2 µM | % reduction of the activity of BACE (recombinant BACE enzyme; at 200 µM): 20 (200 µM) %

Cc1ccc(NC(=O)Nc2ccc(N(C)C)c(C(=O)NCCCN3CCOCC3)c2)cc1C [Compound A6]
% reduction of secreted SEAP activity ([1]; at 12.5 µM): 19 (12.5 µM) % | IC50 (Aβ1-40 secretion): 23 µM | % reduction of the activity of BACE (recombinant BACE enzyme; at 100 µM): 21 (100 µM) %

Cc1cccc(NC(=O)NCC2CCN(c3ccc(S(=O)(=O)N4CCOCC4)cc3)CC2)c1 [Compound C3]
% reduction of secreted SEAP activity ([1]; at 12.5 µM): 0 (12.5 µM) % | IC50 (Aβ1-40 secretion): 22 µM | % reduction of the activity of BACE (recombinant BACE enzyme; at 50 µM): 0 (50 µM) %

Cc1cc(C)cc(NC(=O)NCc2nnc(SCc3ccccc3)n2C)c1 [Compound B1]
% reduction of secreted SEAP activity ([1]; at 50 µM): 0 (50 µM) % | IC50 (Aβ1-40 secretion): 18 µM | % reduction of the activity of BACE (recombinant BACE enzyme; at 500 µM): 0 (500 µM) %

COCCCNC(=O)c1cc(NC(=O)Nc2cc(C(F)(F)F)cc(C(F)(F)F)c2)ccc1N(C)C [Compound A2]
% reduction of secreted SEAP activity ([1]; at 3 µM): 27 (3 µM) % | IC50 (Aβ1-40 secretion): 3.2 µM | IC50 (recombinant BACE enzyme): 284 µM

CCOCCCNC(=O)c1cc(NC(=O)Nc2cccc(Cl)c2)ccc1N(C)C [Compound A3]
% reduction of secreted SEAP activity ([1]; at 3 µM): 23 (3 µM) % | IC50 (Aβ1-40 secretion): 2.6 µM

— patent EP1734039A1, “Aryl urea compounds as BETA-secretase inhibitors” (Esbatech AG, priority 2005, dated 2006)
